One block for each molecule: values may come before it.
Assays:
[1] = target: Glutamate NMDA receptor; experiment: In vitro ability to inhibit the binding of [3H]glycine to glycine binding site of N-methyl-D-aspartate glutamate receptor in rat synaptic membranes; assay type: cell membranes, Membrane
[2] = tested on: Rattus norvegicus; experiment: In vivo neuroprotective activity in the MCAo model of rats 6 hr after occlusion(post-ischemia) by iv administration at a dose of 0.3 mg/kg; assay type: functional
[3] = tested on: Rattus norvegicus; experiment: In vivo neuroprotective activity in the MCAo model of rats 6 hr after occlusion(post-ischemia) by iv administration at a dose of 1 mg/kg; assay type: functional
[4] = tested on: Mus musculus; experiment: In vivo neuroprotective activity in the NMDA-induced convulsions in mice after iv administration; assay type: functional
[5] = tested on: Rattus norvegicus; experiment: In vivo neuroprotective activity as reduction of size of gross brain damage in the MCAo model of rats 6 hr after occlusion(post-ischemia) by iv administration at a dose of 1 mg/kg; assay type: functional
[6] = tested on: Rattus norvegicus; experiment: In vivo neuroprotective activity as reduction of size of gross brain damage in the MCAo model of rats 6 hr after occlusion(post-ischemia) by iv administration at a dose of 0.3 mg/kg; assay type: functional
[7] = species: Rattus norvegicus; experiment: Area under curve in rat plasma; assay type: ADME, organism-based; conditions: in vivo
[8] = tested on: Rattus norvegicus; experiment: In vivo neuroprotective activity as reduction of size of gross brain damage in the MCAo model of rats 5 min prior to occlusion(pre-ischemia) by iv administration at a dose of 10 mg/kg; assay type: functional
[9] = tested on: Rattus norvegicus; experiment: In vivo neuroprotective activity in the MCAo model of rats 5 min prior to occlusion(pre-ischemia) by iv administration at a dose of 0.1 mg/kg; assay type: functional
[10] = tested on: Rattus norvegicus; experiment: In vivo neuroprotective activity as reduction of size of gross brain damage in the MCAo model of rats 5 min prior to occlusion(pre-ischemia) by iv administration at a dose of 0.01 mg/kg; assay type: functional
[11] = tested on: Rattus norvegicus; experiment: In vivo neuroprotective activity in the MCAo model of rats 5 min prior to occlusion(pre-ischemia) by iv administration at a dose of 10 mg/kg; assay type: functional
[12] = tested on: Rattus norvegicus; experiment: In vivo neuroprotective activity as reduction of size of gross brain damage in the MCAo model of rats 5 min prior to occlusion(pre-ischemia) by iv administration at a dose of 0.1 mg/kg; assay type: functional
[13] = tested on: Rattus norvegicus; experiment: In vivo neuroprotective activity in the MCAo model of rats 5 min prior to occlusion(pre-ischemia) by iv administration at a dose of 0.01 mg/kg; assay type: functional
[14] = tested on: Rattus norvegicus; experiment: In vivo neuroprotective activity in the MCAo model of rats 5 min prior to occlusion(pre-ischemia) by iv administration at a dose of 1 mg/kg; assay type: functional
[15] = tested on: Rattus norvegicus; experiment: In vivo neuroprotective activity as reduction of size of gross brain damage in the MCAo model of rats 5 min prior to occlusion(pre-ischemia) by iv administration at a dose of 1 mg/kg; assay type: functional

SMILES: CC(=O)NCc1ccc(NC(=O)/C=C2\CC(C(=O)O)Nc3cc(Cl)cc(Cl)c32)cc1 (stereo not drawn)
Log Ki [1]: -8.32

SMILES: CC(C)C(=O)NCc1ccc(NC(=O)/C=C2\CC(C(=O)O)Nc3cc(Cl)cc(Cl)c32)cc1 (stereo not drawn)
Log Ki [1]: -7.78

SMILES: CS(=O)(=O)Nc1ccc(NC(=O)/C=C2\CC(C(=O)O)Nc3cc(Cl)cc(Cl)c32)cc1 (stereo not drawn)
Log Ki [1]: -8.18

SMILES: O=C(/C=C1\CC(C(=O)O)Nc2cc(Cl)cc(Cl)c21)Nc1ccccc1 (stereo not drawn)
Log Ki [1]: -8.18

SMILES: N#C/C=C/c1ccc(NC(=O)/C=C2\CC(C(=O)O)Nc3cc(Cl)cc(Cl)c32)cc1 (stereo not drawn)
Log Ki [1]: -7.73

SMILES: COCC(=O)Nc1ccc(NC(=O)/C=C2\CC(C(=O)O)Nc3cc(Cl)cc(Cl)c32)cc1 (stereo not drawn)
Log Ki [1]: -8.18

SMILES: O=C(/C=C/c1c(C(=O)O)[nH]c2cc(Cl)cc(Cl)c12)Nc1ccccc1 [GAVESTINEL]
Log Ki [1]: -8.52

Further lines, with some results ahead:

Log Ki [1]: -8.15
SMILES: NC(=O)/C=C/c1ccc(NC(=O)/C=C2\CC(C(=O)O)Nc3cc(Cl)cc(Cl)c32)cc1 (stereo not drawn)

Log Ki [1]: -7.76
SMILES: Nc1ccc(NC(=O)/C=C2\CC(C(=O)O)Nc3cc(Cl)cc(Cl)c32)cc1 (stereo not drawn)

Log Ki [1]: -8.17
SMILES: NS(=O)(=O)Nc1ccc(NC(=O)/C=C2\CC(C(=O)O)Nc3cc(Cl)cc(Cl)c32)cc1 (stereo not drawn)

Log Ki [1]: -8.15
SMILES: N#CCc1ccc(NC(=O)/C=C2\CC(C(=O)O)Nc3cc(Cl)cc(Cl)c32)cc1 (stereo not drawn)

Log Ki [1]: -8.38
SMILES: NC(=O)NCc1ccc(NC(=O)/C=C2\CC(C(=O)O)Nc3cc(Cl)cc(Cl)c32)cc1 (stereo not drawn)

Log Ki [1]: -8.18
SMILES: NC(=O)Cc1ccc(NC(=O)/C=C2\CC(C(=O)O)Nc3cc(Cl)cc(Cl)c32)cc1 (stereo not drawn)

Log Ki [1]: -7.72
SMILES: O=C(O)Cc1ccc(NC(=O)/C=C2\CC(C(=O)O)Nc3cc(Cl)cc(Cl)c32)cc1 (stereo not drawn)

Log Ki [1]: -8.79
AUC [7]: 3440 ng·h/mL
SMILES: CC(=O)Nc1ccc(NC(=O)/C=C2\CC(C(=O)O)Nc3cc(Cl)cc(Cl)c32)cc1 (single isomer, unassigned; (+))
Infarct volume [2]: 55.6 mm**3
Infarct volume [3]: 44.4 mm**3
ED50 [4]: 0.31 mg/kg
Reduction [5]: 41.2%
Reduction [6]: 26.3%

Log Ki [1]: -7.3
AUC [7]: 19800 ng·h/mL
SMILES: CC(=O)Nc1ccc(NC(=O)/C=C2\CC(C(=O)O)Nc3cc(Cl)cc(Cl)c32)cc1 (single isomer, unassigned; (-))
Infarct volume [2]: 58.7 mm**3
Infarct volume [3]: 42.9 mm**3
ED50 [4]: 1.52 mg/kg
Reduction [5]: 43.2%
Reduction [6]: 22.2%

Log Ki [1]: -8.52
AUC [7]: 11500 ng·h/mL
SMILES: CC(=O)Nc1ccc(NC(=O)/C=C2\CC(C(=O)O)Nc3cc(Cl)cc(Cl)c32)cc1 (stereo in doubt; 3c)
Reduction [8]: 46.1%
Infarct volume [9]: 47.8 mm3
Reduction [10]: 12.7%
Infarct volume [2]: 36.6 mm**3
Infarct volume [3]: 29.9 mm**3
Infarct volume [11]: 39.7 mm3
ED50 [4]: 0.2 mg/kg
Reduction [5]: 59.4%
Reduction [12]: 35.1%
Reduction [6]: 50.3%
Infarct volume [13]: 64.3 mm3
Infarct volume [14]: 41.8 mm3
Reduction [15]: 43.3%
